± gives the expanded uncertainty stated by the source.
How the values were obtained:
[1] = wn = mass fraction of the nth substance listed; settings: 100 kPa, Liquid, w1 = 0.8465; for viscosity: Cone and plate viscometry; for mass density: Vibrating tube method
[2] = 100 kPa, Liquid; for viscosity: Cone and plate viscometry; for mass density: Vibrating tube method

SMILES	viscosity ([2]; 288.15 K) [mPa·s]	mass density ([2]; 288.15 K) [kg/m3]	viscosity ([2]; 293.15 K) [mPa·s]	mass density ([2]; 293.15 K) [kg/m3]	viscosity ([2]; 298.15 K) [mPa·s]	mass density ([2]; 298.15 K) [kg/m3]	viscosity ([2]; 303.15 K) [mPa·s]	mass density ([2]; 303.15 K) [kg/m3]	viscosity ([2]; 308.15 K) [mPa·s]	mass density ([2]; 308.15 K) [kg/m3]	viscosity ([2]; 313.15 K) [mPa·s]	mass density ([2]; 313.15 K) [kg/m3]	viscosity ([2]; 318.15 K) [mPa·s]	mass density ([2]; 318.15 K) [kg/m3]	viscosity ([2]; 323.15 K) [mPa·s]	mass density ([2]; 323.15 K) [kg/m3]	viscosity ([2]; 328.15 K) [mPa·s]	mass density ([2]; 328.15 K) [kg/m3]	viscosity ([2]; 333.15 K) [mPa·s]	mass density ([2]; 333.15 K) [kg/m3]	other results
CC(CC(C)(C)C)CP(=O)([O-])CC(C)CC(C)(C)C.CCCCCCCCCCCCCC[P+](CCCCCC)(CCCCCC)CCCCCC + O	–	–	–	–	–	–	–	–	–	–	–	–	–	–	–	–	–	–	–	–	viscosity ([1]; 288.15 K): 286.96 ± 21 mPa·s; mass density ([1]; 288.15 K): 921.09 ± 3.5 kg/m3; viscosity ([1]; 293.15 K): 211.13 ± 15 mPa·s; mass density ([1]; 293.15 K): 917.76 ± 3.5 kg/m3; viscosity ([1]; 298.15 K): 156.74 ± 11 mPa·s; mass density ([1]; 298.15 K): 914.4 ± 3.5 kg/m3; viscosity ([1]; 303.15 K): 119.54 ± 7.9 mPa·s; mass density ([1]; 303.15 K): 911.03 ± 3.5 kg/m3; viscosity ([1]; 308.15 K): 93.22 ± 6.1 mPa·s; mass density ([1]; 308.15 K): 907.66 ± 3.4 kg/m3; viscosity ([1]; 313.15 K): 74.08 ± 4.8 mPa·s; mass density ([1]; 313.15 K): 904.29 ± 3.4 kg/m3; viscosity ([1]; 318.15 K): 60.01 ± 3.8 mPa·s; mass density ([1]; 318.15 K): 900.95 ± 3.4 kg/m3; viscosity ([1]; 323.15 K): 49.03 ± 3.1 mPa·s; mass density ([1]; 323.15 K): 897.66 ± 3.4 kg/m3; viscosity ([1]; 328.15 K): 40.7 ± 2.6 mPa·s; mass density ([1]; 328.15 K): 894.18 ± 3.3 kg/m3; viscosity ([1]; 333.15 K): 34.16 ± 2.2 mPa·s; mass density ([1]; 333.15 K): 890.61 ± 3.3 kg/m3
CCCCCCCCCCCC [dodecane]	1.58 ± 0.1	753.43 ± 0.59	1.47 ± 0.09	749.81 ± 0.58	1.35 ± 0.08	746.18 ± 0.58	1.24 ± 0.08	742.55 ± 0.58	1.14 ± 0.07	738.91 ± 0.57	1.06 ± 0.07	735.26 ± 0.57	0.99 ± 0.06	731.61 ± 0.57	0.93 ± 0.06	727.95 ± 0.57	0.87 ± 0.05	724.29 ± 0.56	0.82 ± 0.05	720.61 ± 0.56	–
CC(CC(C)(C)C)CP(=O)([O-])CC(C)CC(C)(C)C.CCCCCCCCCCCCCC[P+](CCCCCC)(CCCCCC)CCCCCC	1953 ± 180	890.86 ± 4.3	1446.3 ± 130	887.72 ± 4.3	1058.2 ± 91	884.55 ± 4.3	782.72 ± 65	881.54 ± 4.2	587.62 ± 47	878.58 ± 4.2	447.95 ± 34	875.62 ± 4.2	346.95 ± 26	872.67 ± 4.2	272.37 ± 20	869.72 ± 4.1	217.4 ± 15	866.77 ± 4.1	175.07 ± 12	863.87 ± 4.1	mass density ([2]; 338.15 K): 860.99 ± 4.1 kg/m3; mass density ([2]; 343.15 K): 858.1 ± 4 kg/m3; mass density ([2]; 348.15 K): 855.22 ± 4 kg/m3; viscosity ([2]; 353.15 K): 80.99 ± 5.3 mPa·s; mass density ([2]; 353.15 K): 852.33 ± 4 kg/m3; mass density ([2]; 358.15 K): 849.44 ± 4 kg/m3; mass density ([2]; 363.15 K): 846.56 ± 3.9 kg/m3; viscosity ([2]; 373.15 K): 42.79 ± 2.8 mPa·s; viscosity ([2]; 393.15 K): 24.53 ± 1.6 mPa·s; viscosity ([2]; 413.15 K): 15.44 ± 1 mPa·s; viscosity ([2]; 433.15 K): 10.17 ± 0.66 mPa·s
